Test results taken from patent US20250134878A1, “COMBINATION OF CHEK1 INHIBITOR AND TOP1 INHIBITOR FOR TREATING COLORECTAL CANCER” (Genome Research Limited, priority 2022, published 2025).
pIC50: −log10 of the molar value. Where “and” joins values, the source holds several entries; their conditions need not be identical. Equal entries are not always repeated. Where two headings read alike, the source gives them in different places.

What was measured:
[1] = tested on: colon cancer cell lines (CL-11, SNU-81 and SW837); test: 7x7 matrix combination screen with SN-38, CellTiter-Glo 72 h, Bliss window and HSA window; assay type: cell-based; conditions: MSS and KRAS/TP53 double mutant cell lines
Description: Viability was measured after 72 h of drug treatment using CellTiter-Glo reagent. Single-agent and combination viability measurements were fitted per cell line and multiple parameters derived including single agent values and a range of synergy scores. […] The “Bliss window” was reported as the highest mean Bliss excess value measured across the 25 possible 3×3 submatrices, or ‘windows’, across the 7×7 dose matrix. […] The “HSA window” was reported as the highest mean HSA excess value measured across the 25 possible 3×3 submatrices, or ‘windows’, across the 7×7 dose matrix.

[2] = Phase 1 clinical trials; cited from earlier work
[3] = tested on: SW620, SW837, SNU-81 or LS-1034 cells; test: CHEK specificity: camptothecin anchor plus CHEK inhibitor libraries, CellTiter-Glo viability after 96 h; assay type: cell-based; conditions: in combination with camptothecin (anchor, 0.025 µM), 4 cell lines
Description: After 96 h of drug treatment viability was measured with CellTiter-Glo® 2.0 (CTG; Promega). Drug response curves were fitted and combination response metrics ΔEmax and ΔIC50 calculated by comparing the observed combination response with the expected (Bliss) combination response. The higher the ΔEmax and ΔIC50, the stronger the combination response. SW620, SW837, SNU-81 and LS-1034 are all MSS and KRAS-TP53 double mutant colon cancer cell lines.

CHEK1 = biological target: T1, CHEK1 (Homo sapiens, UniProt O14757); conditions: assay format not stated; read-out: IC50 (CHEK1 inhibitor); cited from earlier work
T1 sequence (O14757 1-476): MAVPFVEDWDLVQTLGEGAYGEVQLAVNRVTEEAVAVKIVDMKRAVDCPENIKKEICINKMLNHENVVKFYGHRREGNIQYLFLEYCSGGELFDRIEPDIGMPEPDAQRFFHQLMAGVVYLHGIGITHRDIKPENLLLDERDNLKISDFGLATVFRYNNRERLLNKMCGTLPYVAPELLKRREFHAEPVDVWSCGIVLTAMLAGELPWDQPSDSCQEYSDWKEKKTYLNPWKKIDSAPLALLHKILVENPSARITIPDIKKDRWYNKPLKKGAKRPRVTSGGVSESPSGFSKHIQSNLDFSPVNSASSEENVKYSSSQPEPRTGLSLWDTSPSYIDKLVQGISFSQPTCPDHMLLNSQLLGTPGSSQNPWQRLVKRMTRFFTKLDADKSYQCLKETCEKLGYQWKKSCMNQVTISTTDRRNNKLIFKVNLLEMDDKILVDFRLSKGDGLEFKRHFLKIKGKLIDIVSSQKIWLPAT

SW837 cells = test: SN-38 dose response after siRNA transfection, viability (CTG); assay type: cell-based; conditions: for pIC50: SN-38 added after 30 h, viability 72 h later
Description: (§1) For siRNA experiments, SW837 and SNU-81 cells (8,000 and 16,000 cells per well, respectively) were reverse transfected with siRNAs of a non-targeting pool as negative control (siNT; Dharmacon, D-001810-10-5), polo-like kinase 1 (PLK1) pool as positive control (Dharmacon, L-003290-00-0010), CHEK1 pool (Dharmacon, L-003255-00-0005) or four individual CHEK1 siRNAs (LQ-003255-00-0005), and CHEK2 pool (Dharmacon, L-003256-00-0005) using lipofectamine RNAiMax (Thermofisher). After 30 h, 0.025 µM or a dose range of 0.001-9 µM SN-38 or DMSO were added and viability was measured 72 h later with CTG. Signal was normalised to siNT+DMSO controls. […] FIGS. 4a and 4c confirm that the effect of the TOP1+CHEK combination is primarily mediated through inhibition of CHEK1.
(§2) SW837 and SNU-81 cells (8,000 and 16,000 cells per well, respectively) were reverse transfected with siRNAs of a non-targeting pool as negative control (siNT; Dharmacon, D-001810-10-5), CHEK1 pool (Dharmacon, L-003255-00-0005) or CHEK2 pool (Dharmacon, L-003256-00-0005) using lipofectamine RNAiMax (Thermofisher). After 30 h, a dose range of 0.001-9 µM SN-38 or DMSO were added and viability was measured 72 h later with CTG. Signal was normalised to siNT+DMSO controls. Mean±SD of three independent replicates.

SNU-81 cells = test: as above; assay type: cell-based; conditions: for pIC50: SN-38 added after 30 h, viability 72 h later
Description: as §1, §2

HT-29 cells = conditions: cited from earlier work
LoVo cells = conditions: cited from earlier work
[4] = tested on: colon (n=45) cancer cell lines; test: anchored 2x7 combination screen, viability by CellTiter-Glo after 72 h, synergy over Bliss
Description: To screen efficiently, the inventors used a 2×7 concentration matrix, or “anchored” approach. The inventors screened each anchor compound at two optimised concentrations and a discontinuous 1,000-fold (7-point) dose-response curve of the library compound. Viability was read out after 72 h of drug treatment using CellTiter-Glo and drug responses for single agent and combination responses were fitted.
The synergy and activity rate also subset to MSS (n=30) and MSI (n=15), or KRAS mut (n=24) and KRAS wt (n=21) cell lines.
Activity in MSI (n=15) and MSS (n=30) cell lines was compared (FIG. 1a). KRAS mutant (n=24) cell lines were investigated (n=8, TP53 wild type; n=16 TP53 mutant) (FIG. 1b). […] Plotted are averaged combination responses. Box and whisker plots show the median and interquartile range. A two-sided Welch's t-test was performed (*=p≤0.05, **=p≤0.01, ***=p≤0.001, ****=p≤0.0001).
Viability was read out after 72 h of drug treatment using CellTiter-Glo and drug responses for single agent and combination responses were fitted.

[5] = tested on: ATR-driven phosphorylated CHEK1 (P-CHEK1) phosphorylation; conditions: cell-free assay; cited from earlier work
[6] = biological target: ataxia telangiectasia and Rad3 related (ATR) kinase (Homo sapiens, UniProt Q13535); conditions: cited from earlier work
Sequence of ataxia telangiectasia and Rad3 related (ATR) kinase (Q13535 whole entry): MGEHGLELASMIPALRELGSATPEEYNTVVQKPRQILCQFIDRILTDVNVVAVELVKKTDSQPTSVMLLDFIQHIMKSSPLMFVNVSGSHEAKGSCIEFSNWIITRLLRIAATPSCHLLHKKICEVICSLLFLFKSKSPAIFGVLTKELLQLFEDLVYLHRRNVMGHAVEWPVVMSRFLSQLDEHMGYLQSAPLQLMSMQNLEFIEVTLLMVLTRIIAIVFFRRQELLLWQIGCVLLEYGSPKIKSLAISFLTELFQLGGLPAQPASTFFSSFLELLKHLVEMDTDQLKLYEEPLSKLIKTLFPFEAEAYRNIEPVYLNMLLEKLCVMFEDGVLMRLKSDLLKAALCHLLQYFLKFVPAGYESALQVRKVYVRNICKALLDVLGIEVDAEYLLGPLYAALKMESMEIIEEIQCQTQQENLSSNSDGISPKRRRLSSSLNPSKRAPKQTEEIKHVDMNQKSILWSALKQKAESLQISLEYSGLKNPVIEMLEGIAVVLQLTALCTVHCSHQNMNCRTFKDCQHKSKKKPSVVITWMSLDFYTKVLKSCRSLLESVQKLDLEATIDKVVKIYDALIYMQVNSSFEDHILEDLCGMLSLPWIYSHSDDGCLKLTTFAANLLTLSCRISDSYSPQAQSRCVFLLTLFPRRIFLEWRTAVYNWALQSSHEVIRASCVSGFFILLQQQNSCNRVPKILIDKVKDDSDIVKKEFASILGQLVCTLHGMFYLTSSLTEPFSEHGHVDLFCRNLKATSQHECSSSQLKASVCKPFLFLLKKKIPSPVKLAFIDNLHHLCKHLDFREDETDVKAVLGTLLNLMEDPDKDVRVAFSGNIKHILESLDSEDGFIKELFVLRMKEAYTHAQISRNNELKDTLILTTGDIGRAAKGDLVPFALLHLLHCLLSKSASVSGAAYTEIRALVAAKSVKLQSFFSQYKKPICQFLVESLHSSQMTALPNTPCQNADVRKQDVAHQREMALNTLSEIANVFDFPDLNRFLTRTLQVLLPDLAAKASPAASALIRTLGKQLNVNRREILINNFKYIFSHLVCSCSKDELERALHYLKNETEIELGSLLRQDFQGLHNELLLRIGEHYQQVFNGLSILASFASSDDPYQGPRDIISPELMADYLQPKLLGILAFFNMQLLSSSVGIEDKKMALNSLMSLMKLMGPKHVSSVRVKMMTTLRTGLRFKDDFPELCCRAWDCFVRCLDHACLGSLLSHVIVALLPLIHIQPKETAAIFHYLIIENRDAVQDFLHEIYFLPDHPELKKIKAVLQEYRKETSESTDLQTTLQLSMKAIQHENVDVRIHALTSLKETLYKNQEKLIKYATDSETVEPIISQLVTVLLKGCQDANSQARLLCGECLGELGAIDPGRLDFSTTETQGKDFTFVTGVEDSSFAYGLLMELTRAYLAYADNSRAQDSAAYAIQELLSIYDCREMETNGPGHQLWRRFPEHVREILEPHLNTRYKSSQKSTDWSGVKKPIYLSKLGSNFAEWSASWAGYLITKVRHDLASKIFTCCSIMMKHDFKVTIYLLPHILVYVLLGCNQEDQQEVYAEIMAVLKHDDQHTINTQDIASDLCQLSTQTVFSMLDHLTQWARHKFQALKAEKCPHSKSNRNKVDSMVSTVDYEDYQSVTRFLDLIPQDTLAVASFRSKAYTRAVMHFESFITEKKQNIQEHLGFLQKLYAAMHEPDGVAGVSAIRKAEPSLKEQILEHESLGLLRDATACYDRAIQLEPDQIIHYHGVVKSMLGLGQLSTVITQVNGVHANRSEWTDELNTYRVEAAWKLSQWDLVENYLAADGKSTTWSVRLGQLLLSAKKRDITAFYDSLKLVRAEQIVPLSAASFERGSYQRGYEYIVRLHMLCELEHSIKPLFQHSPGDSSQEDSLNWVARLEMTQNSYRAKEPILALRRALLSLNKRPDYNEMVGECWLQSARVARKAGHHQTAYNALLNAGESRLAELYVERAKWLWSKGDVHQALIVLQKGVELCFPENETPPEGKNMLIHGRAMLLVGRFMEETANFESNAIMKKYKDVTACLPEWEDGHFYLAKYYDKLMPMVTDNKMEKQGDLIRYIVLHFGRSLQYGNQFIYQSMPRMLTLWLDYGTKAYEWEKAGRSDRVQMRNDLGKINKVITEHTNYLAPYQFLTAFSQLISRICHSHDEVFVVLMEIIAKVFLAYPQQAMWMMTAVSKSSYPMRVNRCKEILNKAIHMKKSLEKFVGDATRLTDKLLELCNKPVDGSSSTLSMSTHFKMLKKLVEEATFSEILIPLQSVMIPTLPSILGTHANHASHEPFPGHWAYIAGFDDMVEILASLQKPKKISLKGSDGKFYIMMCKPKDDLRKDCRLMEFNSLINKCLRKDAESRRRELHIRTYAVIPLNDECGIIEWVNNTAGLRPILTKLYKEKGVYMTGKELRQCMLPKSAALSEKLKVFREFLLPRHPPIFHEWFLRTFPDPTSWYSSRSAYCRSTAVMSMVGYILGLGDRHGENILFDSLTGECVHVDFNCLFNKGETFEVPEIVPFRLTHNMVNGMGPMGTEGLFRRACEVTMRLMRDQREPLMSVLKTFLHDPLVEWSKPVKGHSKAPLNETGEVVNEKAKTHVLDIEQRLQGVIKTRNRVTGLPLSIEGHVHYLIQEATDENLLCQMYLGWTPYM
Sequence of ataxia telangiectasia and Rad3 related (ATR) kinase (Q8WXE1 whole entry partner): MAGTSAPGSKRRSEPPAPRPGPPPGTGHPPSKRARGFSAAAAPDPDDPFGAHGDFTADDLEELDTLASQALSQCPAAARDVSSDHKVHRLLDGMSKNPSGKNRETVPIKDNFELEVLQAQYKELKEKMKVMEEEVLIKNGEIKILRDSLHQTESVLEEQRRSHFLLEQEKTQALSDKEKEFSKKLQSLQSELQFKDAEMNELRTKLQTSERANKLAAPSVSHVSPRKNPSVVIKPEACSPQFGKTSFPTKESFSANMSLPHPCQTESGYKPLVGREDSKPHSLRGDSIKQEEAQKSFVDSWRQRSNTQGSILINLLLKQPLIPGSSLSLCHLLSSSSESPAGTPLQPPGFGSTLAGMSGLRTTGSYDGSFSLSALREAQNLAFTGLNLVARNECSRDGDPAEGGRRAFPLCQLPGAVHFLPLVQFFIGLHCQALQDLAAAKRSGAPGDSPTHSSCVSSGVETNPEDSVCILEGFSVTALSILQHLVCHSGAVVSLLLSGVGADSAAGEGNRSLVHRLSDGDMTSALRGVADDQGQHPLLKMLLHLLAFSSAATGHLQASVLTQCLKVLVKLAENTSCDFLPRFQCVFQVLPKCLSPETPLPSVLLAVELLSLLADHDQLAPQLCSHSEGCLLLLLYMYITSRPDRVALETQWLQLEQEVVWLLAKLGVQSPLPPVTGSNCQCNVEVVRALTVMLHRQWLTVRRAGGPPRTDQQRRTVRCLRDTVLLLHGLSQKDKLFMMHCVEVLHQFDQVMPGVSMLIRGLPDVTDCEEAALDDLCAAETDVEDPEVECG

In the case of `Cc1cnc(NC(=O)Nc2cc(Br)c(C)cc2OC[C@@H]2CNCCO2)cn1` [rabusertib, 1-[5-bromo-4-methyl-2-[[(2S)-morpholin-2-yl]methoxy]phenyl]-3-(5-methylpyrazin-2-yl) urea], the “synergy (Bliss window and HSA window) in combination with SN-38” value (“synergy (Bliss window and HSA window)” for short) [1] is listed as “high” and the safety profile [2] is listed as “acceptable safety profile”.

For `COc1cc2nc(-c3cc(F)ccc3O)nc(N[C@@H]3CNC[C@H]3C(C)(C)O)c2cc1OC` [CCT241533], the “median ΔEmax (shift in efficacy over Bliss)” value [3] was “did not”.

For `Cn1cc(-c2cnn3c(N)c(Br)c([C@@H]4CCCNC4)nc23)cn1` [MK-8776, 6-bromo-3-(1-methyl-1H-pyrazol-4-yl)-5-[(3R)-piperidin-3-yl]pyrazolo[1,5-a]pyrimidin-7-amine], the “synergy (Bliss window and HSA window)” value [1] was “high”.

For `C[C@H](CN(C)C)Oc1nc(Nc2cc3cccc(Cl)c3cn2)cnc1C#N` [SAR-020106, 5-(8-chloroisoquinolin-3-ylamino)-3-((R)-1-(dimethylamino)propan-2-yloxy) pyrazine-2-carbonitrile], the “synergy (Bliss window and HSA window)” value [1] was “high”.

In the case of `N[C@@H]1CCCN(c2c(Br)cnc3[nH]cc(NC(=O)C4CC4)c23)C1` [GDC-0575, N-[4-[(3R)-3-amino-1-piperidyl]-5-bromo-1H-pyrrolo[2,3-b]pyridin-3-yl]cyclopropanecarboxamide], the pIC50 (CHEK1) is given as 8.92.

For `COc1cccc(OCCCN)c1-c1cc(Nc2cnc(C#N)cn2)n[nH]1` [Prexasertib, 5-[[5-[2-(3-aminopropoxy)-6-methoxyphenyl]-1H-pyrazol-3-yl]amino]pyrazine-2-carbonitrile], the “synergy (Bliss window and HSA window)” value [1] was “high”.

`CCc1c2c(nc3ccc(O)cc13)-c1cc3c(c(=O)n1C2)COC(=O)[C@]3(O)CC` [SN-38, (19S)-10,19-diethyl-7,19-dihydroxy-17-oxa-3,13-diazapentacyclo[11.8.0.0^2.11.0^4.9.0^15,20]henicosa-1(21),2,4(9),5,7,10,15(20)-heptaene-14,18-dione] gave a pIC50 (SW837 cells; CHEK1 siRNA pool, read-out: IC50 in SW837, siCHEK1) of 9.15, a pIC50 (SW837 cells; CHEK2 siRNA pool, read-out: IC50 in SW837, siCHEK2) of 7.17 and a pIC50 (SW837 cells; Homo sapiens, SW837, CHEK1 siRNA pool, read-out: IC50 in SW837, siCHEK1) of 9.16. The pIC50 (SW837 cells; Homo sapiens, SW837, CHEK2 siRNA pool, read-out: IC50 in SW837, siCHEK2) was 7.18, the pIC50 (SW837 cells; Homo sapiens, SW837, non-targeting siRNA pool, read-out: IC50 in SW837, siNT) was 7.07 and the “shift in IC50 of SN-38 on addition of siCHEK1” value (SW837 cells; SW837, siCHEK1 vs siNT) was 120 fold. The pIC50 (SW837 cells; non-targeting siRNA pool, read-out: IC50 in SW837, siNT) was 7.08, the pIC50 (SNU-81 cells; CHEK1 siRNA pool, read-out: IC50 in SNU-81, siCHEK1) was 7.07 and 7.08 and the pIC50 (SNU-81 cells; CHEK2 siRNA pool, read-out: IC50 in SNU-81, siCHEK2) was 6.15. For the same compound, the “shift in IC50 of SN-38 on addition of siCHEK1” value (SNU-81 cells; SNU-81, siCHEK1 vs siNT) was 7.2 fold and the pIC50 (SNU-81 cells; non-targeting siRNA pool, read-out: IC50 in SNU-81, siNT) was 6.21.

For `CCc1c2c(nc3ccc(OC(=O)N4CCC(N5CCCCC5)CC4)cc13)-c1cc3c(c(=O)n1C2)COC(=O)[C@]3(O)CC` [Irinotecan, [(19S)-10,19-diethyl-19-hydroxy-14,18-dioxo-17-oxa-3,13-diazapentacyclo[11.8.0.0^2.11.0^4.9.0^15,20]henicosa-1 (21),2,4(9),5,7,10,15(20)-heptaen-7-yl] 4-(1-piperidyl) piperidine-1-carboxylate], the pIC50 (HT-29 cells) is listed as 5.29 and the pIC50 (LoVo cells) is listed as 4.80.

For `NC(=O)Nc1cc(-c2cccc(F)c2)sc1C(=O)N[C@H]1CCCNC1` [AZD7762, (S)-5-(3-Fluorophenyl)-N-(piperidin-3-yl)-3-ureidothiophene-2-carboxamide], the “synergy and activity rate in combination with 5-FU (DNA antimetab.)” value ([4]; AZD7762 = Anchor) was 26%, the “synergy and activity rate in combination with Oxaliplatin (DNA alkyl.)” value ([4]; AZD7762 = Anchor) was 0% and the “synergy and activity rate in combination with Vinorelbine (Microtub.)” value ([4]; AZD7762 = Anchor) was 0%. The “synergy and activity rate in combination with 5-FU (DNA antimetab.)” value ([4]; AZD7762 = Library) was 28%, the “synergy and activity rate in combination with Oxaliplatin (DNA alkyl.)” value ([4]; AZD7762 = Library) was 2% and the “synergy and activity rate in combination with Vinorelbine (Microtub.)” value ([4]; AZD7762 = Library) was 4%.

For `Nc1nn2cc(F)cnc2c1C(=O)Nc1cncc(F)c1N1CCC(C(=O)N2CCN(C3COC3)CC2)CC1` [VX-803, 2-amino-6-fluoro-N-[5-fluoro-4-[4-[4-(oxetan-3-yl)piperazine-1-carbonyl]-1-piperidyl]-3-pyridyl]pyrazolo[1,5-a]pyrimidine-3-carboxamide], the pIC50 [5] is given as 8.10 and the “Ki ATR kinase” value [6] is given as less than 0.15 nM.
